Data as given in article PMC10314921, “Eltrombopag directly activates BAK and induces apoptosis” (Cell Death & Disease, 2023).

Target: T1, BAK (Homo sapiens, UniProt Q16611)
T1 construct: gene BAK1; BAKΔTM (lacking its transmembrane domain) for MST; BAK 15–186 for NMR
T1 sequence (Q16611 15-186): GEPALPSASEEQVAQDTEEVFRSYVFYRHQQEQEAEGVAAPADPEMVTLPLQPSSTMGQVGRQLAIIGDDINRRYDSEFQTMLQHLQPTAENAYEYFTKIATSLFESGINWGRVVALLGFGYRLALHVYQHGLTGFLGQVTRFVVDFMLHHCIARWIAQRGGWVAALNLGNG
Assay: microscale thermophoresis; 1H, […]-HSQC NMR titration; BAK oligomerization and liposome release as support
Type: binding

Kd: 1200 ± 700 nM
SMILES: CC1=NN(c2ccc(C)c(C)c2)C(=O)/C1=N\Nc1cccc(-c2cccc(C(=O)O)c2)c1O [Eltrombopag]
